Series [1] can be described thus: Physical stability in mixing operation in the presence of water or water-ethanol (1:1) mixed solution (powder X-ray diffraction before/after). Conditions: mixing in agate mortar at room temperature for a few minutes with dropwise water or water-ethanol (1:1) mixed solution, dried at about 60° C. for 2 to 3 hours. Type of series: physicochemical. The protocol: Physical Stability in Mixing Operation in the Presence of Water or Water-Ethanol (1:1) Mixed Solution
About 60 to 150 mg of crystals obtained in Reference Example A1 (Anhydrous form II) and crystals obtained in Example 1 (Crystal form IV) were placed in an agate mortar, and the mixing operation was carried out at room temperature for a few minutes while the dropwise addition of water (or water-ethanol (1:1) mixed solution) continues. Subsequently, the crystals were dried at about 60° C. for 2 to 3 hours. The powder X-ray diffraction of the crystals obtained and crystals of before mixing operation were each measured under the following measurement conditions.
D8 DISCOVER with GADDS manufactured by Bruker AXS Ltd.
Tube voltage: 40 kV Tube current: 200 mA Scanning range (2θ): 5 to 40° Collimator: 0.3 mm double slit
The powder X-ray diffraction pattern of Anhydrous form II before and after mixing operation is shown in FIG. 3, and the powder X-ray diffraction pattern of Crystal form IV is shown in FIG. 4. The mixing operation of Anhydrous form II in the presence of water was performed twice.

Series [2] is described as follows: Chargeability (static potential of the powder after stirring). In kind it is physicochemical. Conditions: about 1 g stirred for 30 minutes in weighing bottle with fluoroplastic-coated stirring bar. The protocol:
About 1 g of respective compounds is weighed into a weighing bottle (diameter of 35 mm). A stirring bar [fluoroplastic (tetrafluoroethylene resin) coating; 20 mm] is placed in the bottle and after the lid is in place, the powders are stirred for 30 minutes. The lid is opened at the same time that stirring is stopped; and the static potential of the powder is measured using a static potential measuring instrument.
STATIRON-DZ3 manufactured by Shishido Electrostatic, Ltd.

Series [3] has as its system AMPA receptor. Conditions: see Patent Document 1 (WO/JP01/96308); cited from earlier work.

For `N#Cc1ccccc1-c1cc(-c2ccccn2)cn(-c2ccccc2)c1=O` [Example 1, 3-(2-Cyanophenyl)-5-(2-pyridyl)-1-phenyl-1,2-dihydopyridin-2-one], the “change of crystal form in mixing operation (physical stability)” value in series [1] is “do not change their crystal forms”.

As to `N#Cc1ccccc1-c1cc(-c2ccccn2)cn(-c2ccccc2)c1=O` [Reference Example A1, 3-(2-cyanophenyl)-5-(2-pyridyl)-1-phenyl-1,2-dihydropyridin-2-one], in series [2], the “static potential of the powder (chargeability)” value is listed as 70-100 V. Moreover, in series [1], the “change of crystal form in mixing operation (physical stability)” value is on record as “change their crystal forms”.

Regarding `N#Cc1ccccc1-c1cc(-c2ccccn2)cn(-c2ccccc2)c1=O` [compound (1), 3-(2-cyanophenyl)-5-(2-pyridyl)-1-phenyl-1,2-dihydropyridin-2-one], the “antagonistic action against AMPA receptor” value in series [3] is listed as “significant antagonistic action”.
